Measurements as given in US20240269104A1, “METHOD FOR TREATING PARKINSON'S DISEASE” (Olatec Therapeutics, Inc., priority 2021, published 2024).

Legend:
IL-6 = IL-6 in LPS-stimulated cultured splenocytes from MPTP-injected mice; type: in vivo; details: mice treated 200 mg/kg for seven days; splenocytes cultured with LPS, supernatant
Description: (§1) Seven days after MPTP-acute administration, peripheral blood and spleen were isolated from each mouse, and hematological changes in the peripheral blood and cytokine production in the spleen were evaluated. […] White blood cells, lymphocytes, monocytes, and granulocytes were measured from the peripheral blood using a HemaTrue cell counter (Heska, Loveland, CO). Spleens were isolated and mechanically passed through a 70 μm cell strainer (ThermoFisher) in PBS. Cells were plated in a 96-well plate at a concentration of 200,000 cells/well in RPMI medium (Coring, New York, NY) with 10% FBS. After that, cells were stimulated with LPS at 1 μg/ml and 5 μg/ml. RPMI medium was used as control. After 72 hours, supernatant was isolated to measure the levels of IL-6. Cells were lysed with RIPA buffer (ThermoFisher) supplemented with protease inhibitor (ThermoFisher) to measure IL-1α levels. In both cases, 5-6 mice per group were used.

[1] = brain levels of dapansutrile after fortified feed pellets; type: in vivo, mice; details: oral
Description: Mice were treated with dapansutrile by ad libitum consumption of dapansutrile-fortified feed pellets (7.5 g/kg) for 21 days. Control mice received a matching unfortified diet without dapansutrile. Mice were monitored during the study for any changes in physiological parameters, including irregular weight gain or loss as well as changes in body temperature. On day 21, mice were sacrificed, and brains were isolated. Dapansutrile measurements in the whole brain homogenates were performed at Syneos Health (Princeton, NJ). Five mice per group were assessed. […] The ability of dapansutrile to cross BBB even when delivered orally provides a potential advance for the treatment of chronic patients like PD.

[2] = tested on: white blood cells, lymphocytes, monocytes, and granulocytes; experiment: peripheral blood cell counts after MPTP-acute administration; type: in vivo, mice; details: 200 mg/kg, day seven after MPTP-acute
Description: as §1

IL-1α = IL-1α in LPS-stimulated cultured splenocytes from MPTP-injected mice; type: in vivo; details: mice treated 200 mg/kg for seven days; splenocytes cultured with LPS, cell lysate
Description: as §1

TNFα = TNFα RNA in the brain by qPCR after MPTP; type: in vivo, mice; details: 200 mg/kg oral gavage; striatum piece, 24 hours after first MPTP injection
Description: Mice were treated dapansutrile or saline and injected with MPTP as described in Example 2.
24 hours after the first injection of MPTP, mice were sacrificed. A piece of brain, centered in the striatum, was taken from each mouse and frozen in liquid nitrogen. Samples were homogenized with Trizol lysis reagent (Thermo Fisher) following the manufacturer's protocol. 1 μg of RNA from each sample was reversely transcribed using the High-Capacity Reverse Transcription kit (Applied BioSystems).
Gene expression measures were performed through qPCR using SYBR Green master mix (Applied Biosystems) and recommended thermal cycling parameters: 1 cycle of polymerase activation for 10 min at 95° C. and 40 cycles of denaturalization for 15 sec at 95° C. plus annealing/extension for 1 min at 60° ° C. (capture). Gene levels of TNFα (a pro-inflammatory cytokine) were normalized to the relation ratio of expression of the GADPH gene following the ΔΔCT method. Primers sequences are detailed below. Final fold-change values were obtained by normalization with naïve condition.

IL-18 = IL-18 in brain homogenates by ELISA after MPTP; type: in vivo, mice
Description: Mice were treated with dapansutrile or saline and injected with MPTP as described in Example 2.
At three days after MPTP, mice were sacrificed and levels of IL-18 in the brain were measured. Briefly, the brain was removed from the mouse and a piece of the striatum was homogenized. Levels of proteins were normalized to 2 mg/ml and IL-18 was measured using the mouse IL-18 ELISA from R and D Systems.
(§2) It has been reported that administration of MPTP induces the assembly of NLPR3 inflammasome in the brain. Mice were sacrificed after anesthesia by cervical dislocation at 4 and 7 days after MPTP administration. Brains were collected, and the striatum (St) and ventral midbrain (VM) areas of both hemispheres were excised and frozen in liquid nitrogen. Samples were homogenized in RIPA buffer (Thermo Fisher, Waltham, MA) supplemented with protease inhibitor (Thermo Fisher) using a TissueRuptor (Qiagen, Germantown, MD). Protein concentration was determined using a BCA Protein Assay Kit (Thermo Fisher) according to manufacturer's instructions. Samples were diluted to 2 mg/ml in the same extraction buffer.
(§3) Levels of IL-1β, IL-18, IL-6, and IL-17A from brain homogenates were measured by ELISA DuoSet kit (R&D Systems, Minneapolis, MN). ELISA kit for IL-1β detects 92-95% of the 17 kDa form and only 8-5% of the precursor form of this cytokine. 96-well plates (ThermoFisher Scientific) were coated with capture antibody. Samples were incubated for two hours at room temperature. Detection antibodies and streptavidin-HRP were added. TMB ELISA (cBioscience, San Diego, CA) was used as substrate solution. Results were measured in a microplate reader (Bio-Tek, Santa Clara, CA). Final values were normalized by the protein concentration of each sample. 4-5 mice per group were used for each cytokine.

IL-1β = IL-1β in brain homogenates by ELISA after MPTP; type: in vivo, mice; details: 200 mg/kg once each day; 4 days after MPTP-acute
Excerpt: as §2, §3

[3] = fortified feed pellets, 21 days
[4] = 200 mg/kg once each day, four days after MPTP-acute

concentration at 21 days ([1]; mouse, brain (whole brain homogenate), fortified feed pellets 7.5 g/kg ad libitum, whole brain homogenates, read-out: dapansutrile level in the brain): 47000 ng/g
brain level relative to concentration required to inhibit the NLRP3 assembly [1, 3]: at least 30 times
crossing of the blood-brain barrier [1, 3]: readily crosses the BBB
SMILES: CS(=O)(=O)CCC#N [dapansutrile, 3-methanesulfonylpropionitrile]
IL-6 production by splenocytes (IL-6): restoring the effects of MPTP
increase in number of circulating granulocytes [2]: 33%
increase in number of circulating lymphocytes [2]: 24%
reduction of the level of intracellular IL-1α in splenocytes (IL-1α): 40%
expression of TNFα RNA in the brain (TNFα): reduces the expression of TNFα RNA in the brain
levels of IL-18 in the ventral midbrain (VM) (IL-18; [4]): no changes associated to dapansutrile
reduction in the levels of IL-18 in the striatum (St) versus MPTP mice treated with saline (IL-18; [4]): 15%
levels of IL-18 in the brain in comparison with mice treated with water (IL-18; 200 mg/kg oral gavage, striatum, three days after MPTP): reduced the levels of IL-18 in the brain
levels of IL-1β in the ventral midbrain (VM) (IL-1β): no changes associated to dapansutrile
reduction of levels of IL-1β in the striatum (St) (IL-1β): 24%
